The numbers were not newly measured in patent publication US10016363B2, “Pre-spray emulsions and powders containing non-polar compounds” (VIRUN, INC., priority 2014, dated 2018), which cites them from elsewhere.

Some results are limits rather than exact numbers.

The conditions of the series: reported HLB value of surfactant.
Take sucrose dipalmitate: the H.L.B. is given as 7.4.

As to sucrose distearate, the H.L.B. is listed as 3. Regarding sucrose monopalmitate, the H.L.B. is greater than 10.
